Data from article PMC7504639, “Fluorescence Lifetime and Intensity of Thioflavin T as Reporters of Different Fibrillation Stages: Insights Obtained from Fluorescence Up-Conversion and Particle Size Distribution Measurements” (International Journal of Molecular Sciences, 2020).
Structures can show the parent of a compound that is named as a salt.

Biological target: T1, Human recombinant insulin (Ins); protofibrils / mature fibrils (Homo sapiens, UniProt P01308)
T1 construct: mature two-chain insulin (cut from proinsulin), recombinant, PanEco; aggregated to amyloid fibrils at pH 2, 62 °C; not the native monomer
Assay: fluorescence-mode nanoparticle tracking (fibril staining)
Assay type: binding
Conditions: mature amyloid fibrils, not native insulin

T1 sequence (P01308 25-54): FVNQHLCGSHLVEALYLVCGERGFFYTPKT
T1 sequence (P01308 90-110): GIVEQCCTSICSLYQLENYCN

`CC[n+]1c(/C=C/c2c(C)cc(N(C)C)cc2C)sc2ccccc21` [2M-DMASEBT, trans2-(′-(dimethylamino)-2,6-dimethylstyryl)-3-ethyl-1,3-benzothiazole tosylate] was tested, and the “fluorescence-mode nanoparticle tracking (fibril staining)” value was “Fibrils were stained using the ThT derivative 2M-DMASEBT”.
